{"source": "patent US20100204149A1", "about": "“USE OF OCTREOTIDE AS A THERAPEUTIC AGENT” (priority 2007, published 2010)", "key": {"MRSA": {"system": "MRSA", "assay": "Methicillin Resistant Staphylococcus Aureus (MRSA) assay", "assay_type": "cell-based", "conditions": "peptide 10 micrograms per ml, read visually", "procedure": "The antibacterial assay was conducted using clear, U-bottom 96-well microtiter plates. Cation-adjusted Mueller-Hinton Broth (MHB) was used for testing MRSA. The peptide of the invention (0.1 ml of each—10 micrograms per ml—) was dispensed into wells in duplicate. Then the wells were inoculated with 5×10^5 CFU/mL MRSA in 0.1 ml volume. For control purposes, each plate included 4 wells containing media without bacterial inoculum and 4 wells containing medium with inoculum but without peptide. The plates were incubated for 12 h at 37° C., and read visually 18-24 hours post-incubation. Growth control of MRSA was examined first to determine adequacy of media preparations and growth conditions. Acceptable growth is defined as ≧2 mm wide button of cells at the bottom of each sample well, or obvious turbidity in the culture supernatant. Test wells were examined and scored as positive/negative for activity. A positive score for activity is based on complete inhibition of macroscopic growth of the test MRSA."}, "Human A549 cells": {"system": "Human A549 cells", "assay": "Propidium iodide cell cycle assay", "assay_type": "cell-based", "conditions": "peptide 10 micrograms per ml, 24 hours", "source_text": "Human A549 cells (carcinomic human alveolar basal epithelial cells) were utilized in the experiments employing the Propidium iodide cell cycle assay. The eukaryotic cell cycle is a series of events that take place in a cell leading to its replication. The regulation of the cell cycle involves steps crucial to the cell, including detecting and repairing genetic damage, and provision of various checks to prevent uncontrolled cell division. The molecular events that control the cell cycle are ordered and directional; that is, each process occurs in a sequential fashion. The cell cycle consists of four distinct phases: G1 phase, S phase, G2 phase (collectively known as interphase) and M phase. M phase is itself composed of two tightly coupled processes: mitosis, in which the cell's chromosomes are divided between the two daughter cells, and cytokinesis, in which the cell's cytoplasm divides forming distinct cells. Activation of each phase is dependent on the proper progression and completion of the previous one. Cells that have temporarily or reversibly stopped dividing are said to have entered a state of quiescence called Go phase. The relatively brief M phase consists of nuclear division and cytoplasmic division. The first phase within interphase, from the end of the previous M phase till the beginning of DNA synthesis is called G1 (G indicating gap or growth). During this phase the biosynthetic activities of the cell resume at a high rate. This phase is marked by synthesis of various enzymes that are required in S phase, mainly those needed for DNA replication. The ensuing S phase starts when DNA synthesis commences; when it is complete, all of the chromosomes have been replicated. The cell then enters the G2 phase, which lasts until the cell enters mitosis. Significant protein synthesis occurs during this phase, mainly involving the production of microtubules, which are required during the process of mitosis. […]\nPropidium iodide is an intercalating agent and a fluorescent molecule that can be used to stain DNA. […] After incubation for 40 min at 37° C., cells were analyzed in the FACS."}, "RAW 264.7 cells": {"system": "RAW 264.7 cells", "assay": "Phagocytosis assay with Fluorescein-labeled Escherichia coli", "assay_type": "cell-based, mouse", "conditions": "peptide 10 micrograms per ml", "procedure": "RAW 264.7 (Mouse leukaemic monocyte macrophage cell line) cells were obtained from ATCC and grown in RPMI 1640 medium containing 10% FBS. Cells were incubated in 12×75 mm tubes at 37° C. with test peptide—10 micrograms per ml—for 30 min prior to adding Fluorescein-labeled Escherichia coli bacteria as the agent to be ingested. After the cells were incubated for additional 60 min at 37° C. and allowed to ingest the Fluorescein-labeled Escherichia coli bacteria, cells were fixed with 1% paraformaldehyde. The samples were then analyzed by flow cytometry to determine the amount of phagocytosis as a function of brightness (the greater the phagocytic activity, the more fluorescence in the macrophage population). Data are reported as % positive and the mean fluorescence intensity (MFI) of positively stained cells."}, "[1]": {"system": "spleen cells of Ovalbumin immunized Balb/c mice", "assay": "Th1/Th2 cytokine profiling assay", "assay_type": "cell-based, mouse", "conditions": "peptide 10 micrograms per ml; Ovalbumin restimulation; 72 hours", "source_text": "The Balb/c mice (originated in 1923, it is a popular strain and is used in many different research disciplines. Also classified as an inbred from the production of 20 or more successive brother-sister matings, the Balb/c mouse is albino and small in size) were immunized on Days 1, 15, and 29 with Ovalbumin (Ovalbumin is the main protein found in egg white, commonly used to stimulate an immunological reaction in test animals) in PBS (5 micrograms/injection). On day 50, spleens of the mice were harvested (3 weeks after last boost with Ovalbumin). Cells were cultured (2×10^5/well in triplicate) and incubated with culture medium or test peptide—10 micrograms per ml—for 30 min. Thereafter, additional Ovalbumin was added to the cells at 10 micrograms/ml for in vitro restimulation of the cells. 72 hours later, cell supernatants were harvested and assayed using the Becton Dickinson Mouse Th1/Th2 Cytokine CBA Kit. This kit can be used to measure Interleukin-2 (IL-2), Interleukin-4 (IL-4), Interleukin-5 (IL-5), Interferon-γ (IFN-γ), and Tumor Necrosis Factor-α (TNF-α) protein levels in a single sample. The kit performance has been optimized for analysis of physiologically relevant concentrations ([…] levels) of specific cytokine proteins in tissue culture supernatants and serum samples."}, "HUVEC": {"system": "HUVEC", "assay": "Endothelial tube formation assay", "assay_type": "cell-based, human", "conditions": "peptide 10 micrograms per ml, 20 hours", "procedure": "The endothelial tube formation assay is based on the ability of endothelial cells to form three-dimensional capillary-like tubular structures when cultured on a gel of basement membrane extract. The endothelial tube formation assay represents a powerful model for studying inhibition and induction of angiogenesis. Pre-labeled HUVEC with Calcein AM were seeded in a 96-well culture plate coated with extracellular metrix (Chemicon international Cat. ECM625) and treated with test peptide—10 micrograms per ml—in full growth medium. […] control was vehicle only. The endothelial cells were allowed to form tubes for 20 hours and were then examined under an inverted fluorescent microscope. Duplicate wells for each treatment were photographed and quantitatively analyzed for an average tubule length using image analysis software ImageProPlus. Raw data were expressed as average tubule lengths in pixels ±standard deviation. Statistic p values were computed using the Student's t-test."}, "[2]": {"system": "Human Peripheral Blood Mononuclear Cells (PBMC)", "conditions": "B cell proliferation; peptide 10 micrograms per ml; 3 days", "protocol": "Human Peripheral Blood Mononuclear Cells (PBMC) were obtained from normal human donors. The B cell proliferation was induced by stimulation of the cells with the B cell mitogen Staphylococcus aureus Cowans I (SAC) plus Interleukin-2, either in the absence (positive proliferation control), or in the presence of test peptide—10 micrograms per ml—to examine their effects on the B cell response. 10^5/well PBMC were plated in 96-well microtiter plates and assayed in duplicate with the peptide. Cell cultures were incubated at 37° C. for 3 days in a 5% CO2 incubator and were thereafter pulsed with 1 microCi/well ^3H-thymidine for additional 12 hours of culture. At the end of incubation time, the plates were harvested and the cells counted by liquid scintillation for the incorporation of ^3H-thymidine as a measure of B cell proliferation."}}}
{"smiles": "C[C@@H](O)[C@@H]1NC(=O)[C@H](CCCCN)NC(=O)[C@@H](Cc2c[nH]c3ccccc23)NC(=O)[C@H](Cc2ccccc2)NC(=O)[C@@H](NC(=O)[C@H](N)Cc2ccccc2)CSSC[C@@H](C(=O)N[C@H](CO)[C@@H](C)O)NC1=O", "note": "[Octreotide, H-D-Phe-Cys-Phe-D-Trp-Lys-Thr-Cys-L-threoninol]", "values": [{"measurement": "% inhibition", "setting": "MRSA", "value": 0.0, "unit": "%"}, {"measurement": "Cell cycle analysis G0/G1", "setting": "Human A549 cells", "value": 59.1}, {"measurement": "Cell cycle analysis G2/M", "setting": "Human A549 cells", "value": 9.2}, {"measurement": "Cell cycle analysis S", "setting": "Human A549 cells", "value": 31.8}, {"measurement": "% of control phagocytosis", "setting": "RAW 264.7 cells", "value": 105.9, "unit": "%"}, {"measurement": "IFNγ spleen cells; TH1 response (% of control)", "setting": "[1]", "value": "56.0 % of control"}, {"measurement": "IL-2 spleen cells (% of control)", "setting": "[1]", "value": "159.5 % of control"}, {"measurement": "IL-4 spleen cells; TH2 response (% of control)", "setting": "[1]", "value": "114.4 % of control"}, {"measurement": "IL-5 spleen cells; TH2 response (% of control)", "setting": "[1]", "value": "96.1 % of control"}, {"measurement": "TNF-a spleen cells; TH1 response (% of control)", "setting": "[1]", "value": "113.0 % of control"}, {"measurement": "% inhibition of tube formation", "setting": "HUVEC", "value": 8, "unit": "%"}, {"measurement": "% of SAC/IL2 induced control", "setting": "[2]", "value": 115.3, "unit": "%"}]}
